Experimental data taken from paper PMC10900215 (JACS Au, 2024).

Assays:
METTL14 = assay: In vitro ubiquitination assay, METTL14; format: biochemical, human; details: 2, 8, 32 μM compound, 30 °C, 2 h
Method: (§1) For the cell-free in vitro ubiquitination of METTL3-METTL14 purified E1, E2, ubiquitin, CUL4A-RBX1, Cereblon-DDB1, and METTL3-METTL14 were used. Human full-length METTL3-METTL14 was expressed and purified as described above. […] Purified recombinant human UBE1 E1 (E-305–025) was purchased from R&D Systems, UbcH5a E2 (23–029) from Merck and ubiquitin (SBB-UP0013) from South Bay Bio. For the ubiquitination reaction, components were mixed to final concentrations of 0.06 μM UBE1, 1.96 μM UbcH5a, 39 μM ubiquitin, 0.33 μM CUL4A-RBX1, 0.33 μM Cereblon-DDB1, 0.5 μM METTL3-METTL14, and different concentrations of compound 14 or me-14 (0, 2, 8, or 32 μM) in reaction buffer (50 mM Tris-HCl pH 7.6, 5 mM MgCl2, 0.2 mM CaCl2, 1 mM DTT, 100 mM NaCl, 0.01% BSA, 0.01% Triton X-100). The final reaction volume was 15 μL. After the addition of 2 mM ATP (or the equal volume of water for the control without ATP), the reaction mixture was incubated for 2 h at 30 °C. […] The signals were quantified by using the Image Studio Lite software. To determine the percentage of ubiquitinated METTL3, the fraction of unmodified METTL3 was calculated by dividing the signal of the band assigned to unmodified METTL3 by the signal of the area containing both the unmodified and (poly)ubiquitinated METTL3 and normalizing to the control without ATP. […]

METTL3 [1] = molecular target: T1, METTL3 (Homo sapiens, UniProt Q86U44); assay: Cellular thermal shift assay (CETSA) in MOLM-13, METTL3; format: cell-based; details: MOLM-13, 54 °C
T1 construct: METTL3–14 degradation up to 70% of the endogenous level; endogenous in cells; host or cells: MOLM-13, PC3, DU145
Method: One million of MOLM-13 cells were suspended in 100 μL of PBS (10010023, Thermo Fisher Scientific) containing 2× protease inhibitor cocktail (11697498001, Roche), for each condition tested. Cells were incubated with compounds or DMSO control (1% (v/v)) for 1 h at 37 °C. They were then heat treated at 54 °C in a thermoblock for 3 min, followed by cooling to room temperature (3 min). Next, samples were lysed by threefreeze–thaw cycles in liquid nitrogen and centrifuge at 16000 g for 30 min, 4 °C. Equal volumes of control and tested samples (12 μL) were analyzed by Western blot. The changes in the amount of METTL3 protein (after normalization for β-actin and/or GAPDH) were monitored by performing densitometry in Image Studio Lite software and analyzed in GraphPad Prism 9.

METTL3 [2] = molecular target: T2, METTL3 (Homo sapiens, UniProt Q86U44+Q96SW2); assay: In vitro ubiquitination assay, METTL3; format: biochemical; details: 2 μM compound, 30 °C, 2 h
T2 construct: Human full-length METTL3-METTL14 was expressed and purified as described above; Human full-length cereblon-DDB1 and 6xHis-CUL4A-6xHis-RBX1 were coexpressed; StrepII (N); GFP (N); TEV site (N); made in house; host or cells: baculovirus/Sf9 insect cells (METTL3-METTL14, cereblon-DDB1, CUL4A-RBX1)
Method: as §1

[3] = tested on: m6A/A levels in polyadenylated RNA; assay: UPLC-MS/MS quantification of m6A/A in polyadenylated RNA in MOLM-13; format: cell-based, human; details: MOLM-13, 2 μM, 24 h
Method: UPLC-MS/MS was performed as previously described.[28]
Briefly, MOLM-13 cells were seeded into 6 well plates at a density of 1 × 10^6 cells/mL in 2 mL of complete RPMI medium. Cells were treated with the indicated concentrations of compounds or DMSO control (final concentration 0.5% (v/v)) for 24 h. Following the incubation, cells were collected by centrifugation and washed once with PBS, and total RNA was extracted using 0.5 mL of GENEzol reagent according to the manufacturer’s instructions. The final volume of 50 μL of total RNA eluate was subjected to two rounds of purification using 25 μL of Sera-Mag magnetic oligo(dT) particles (Cytiva) per sample. The polyadenylated RNA was eluted with nuclease-free water in a final volume of 25 μL, and its concentration was determined using NanoDrop. One hundred nanograms of mRNA were digested to nucleosides and dephosphorylated in a one-pot reaction using 0.5 μL of nucleoside digestion mix (M0649S, NEB) in 25 μL of total reaction volume for 4 h at 37 °C. The samples were used for UPLC-MS/MS analysis without further purification steps. The data were plotted by using GraphPad Prism 9.

T2 sequence (Q86U44 whole entry): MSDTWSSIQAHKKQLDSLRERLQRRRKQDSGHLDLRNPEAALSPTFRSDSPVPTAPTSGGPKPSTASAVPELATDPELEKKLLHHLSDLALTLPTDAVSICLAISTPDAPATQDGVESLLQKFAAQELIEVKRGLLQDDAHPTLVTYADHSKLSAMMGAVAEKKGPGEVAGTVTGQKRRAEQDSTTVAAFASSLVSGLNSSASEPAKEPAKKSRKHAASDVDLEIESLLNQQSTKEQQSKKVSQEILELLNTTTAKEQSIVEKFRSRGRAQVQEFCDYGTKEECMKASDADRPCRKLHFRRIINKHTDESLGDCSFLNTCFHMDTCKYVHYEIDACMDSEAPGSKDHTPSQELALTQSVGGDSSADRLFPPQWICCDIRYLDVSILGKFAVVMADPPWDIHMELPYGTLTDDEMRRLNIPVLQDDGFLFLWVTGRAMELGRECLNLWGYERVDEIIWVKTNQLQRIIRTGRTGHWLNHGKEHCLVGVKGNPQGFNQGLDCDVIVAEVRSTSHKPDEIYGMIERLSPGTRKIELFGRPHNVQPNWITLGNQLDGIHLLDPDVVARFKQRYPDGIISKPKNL
T2 sequence (Q9HCE5 whole entry partner): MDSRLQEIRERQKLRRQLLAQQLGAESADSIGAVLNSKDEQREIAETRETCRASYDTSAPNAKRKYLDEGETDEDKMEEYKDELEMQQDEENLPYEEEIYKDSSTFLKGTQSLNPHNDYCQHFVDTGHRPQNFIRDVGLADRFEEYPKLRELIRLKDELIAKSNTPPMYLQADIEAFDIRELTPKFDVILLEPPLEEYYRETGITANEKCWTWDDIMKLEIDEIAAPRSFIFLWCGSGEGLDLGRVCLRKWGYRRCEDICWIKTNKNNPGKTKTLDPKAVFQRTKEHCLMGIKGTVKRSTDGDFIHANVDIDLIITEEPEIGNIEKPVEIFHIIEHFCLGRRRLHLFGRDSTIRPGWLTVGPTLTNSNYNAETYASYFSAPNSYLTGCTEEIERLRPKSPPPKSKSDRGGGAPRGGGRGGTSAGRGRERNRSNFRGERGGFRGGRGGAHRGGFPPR
T2 sequence (Q96SW2 whole entry): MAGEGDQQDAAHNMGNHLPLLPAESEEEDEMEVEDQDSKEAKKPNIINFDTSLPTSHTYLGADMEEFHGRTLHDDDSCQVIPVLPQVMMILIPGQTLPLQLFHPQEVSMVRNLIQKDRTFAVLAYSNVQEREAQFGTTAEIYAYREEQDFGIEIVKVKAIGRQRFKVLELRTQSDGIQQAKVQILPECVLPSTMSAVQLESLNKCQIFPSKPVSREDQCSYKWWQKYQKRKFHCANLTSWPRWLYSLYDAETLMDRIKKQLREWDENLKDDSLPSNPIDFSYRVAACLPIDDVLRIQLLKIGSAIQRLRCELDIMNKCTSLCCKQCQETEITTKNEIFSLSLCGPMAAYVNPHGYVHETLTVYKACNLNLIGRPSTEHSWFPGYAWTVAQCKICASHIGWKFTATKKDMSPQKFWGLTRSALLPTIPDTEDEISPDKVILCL
T2 sequence (Q16531 whole entry partner): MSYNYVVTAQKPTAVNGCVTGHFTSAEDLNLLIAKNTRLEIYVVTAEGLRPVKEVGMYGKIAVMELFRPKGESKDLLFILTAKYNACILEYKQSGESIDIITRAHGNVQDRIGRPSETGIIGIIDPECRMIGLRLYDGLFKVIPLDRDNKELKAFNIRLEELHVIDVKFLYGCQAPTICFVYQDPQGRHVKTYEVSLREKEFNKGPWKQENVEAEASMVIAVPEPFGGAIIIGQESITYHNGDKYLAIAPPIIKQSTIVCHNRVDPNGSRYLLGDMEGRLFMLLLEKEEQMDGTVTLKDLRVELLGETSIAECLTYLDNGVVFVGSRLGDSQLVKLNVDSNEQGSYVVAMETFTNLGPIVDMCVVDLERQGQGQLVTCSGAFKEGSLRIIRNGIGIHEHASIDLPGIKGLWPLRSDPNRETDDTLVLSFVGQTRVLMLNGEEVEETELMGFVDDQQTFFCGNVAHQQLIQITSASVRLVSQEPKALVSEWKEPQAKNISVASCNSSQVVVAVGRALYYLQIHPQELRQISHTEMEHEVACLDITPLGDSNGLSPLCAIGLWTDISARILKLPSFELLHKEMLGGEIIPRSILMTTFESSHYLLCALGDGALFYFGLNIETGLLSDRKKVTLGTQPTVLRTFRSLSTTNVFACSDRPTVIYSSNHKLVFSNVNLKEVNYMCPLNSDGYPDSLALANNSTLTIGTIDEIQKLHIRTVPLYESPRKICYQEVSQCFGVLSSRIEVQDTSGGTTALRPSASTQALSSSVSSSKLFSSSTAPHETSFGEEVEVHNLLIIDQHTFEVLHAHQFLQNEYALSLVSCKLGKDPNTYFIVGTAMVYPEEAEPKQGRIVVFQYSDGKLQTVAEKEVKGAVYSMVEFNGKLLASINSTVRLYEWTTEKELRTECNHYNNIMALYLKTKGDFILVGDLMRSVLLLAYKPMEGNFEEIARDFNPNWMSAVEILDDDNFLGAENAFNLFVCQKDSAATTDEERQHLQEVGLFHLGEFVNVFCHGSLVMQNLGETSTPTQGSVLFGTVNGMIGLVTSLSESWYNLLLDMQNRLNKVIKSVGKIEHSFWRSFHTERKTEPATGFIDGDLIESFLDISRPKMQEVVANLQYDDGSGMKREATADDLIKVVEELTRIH
T2 sequence (Q13619 whole entry partner): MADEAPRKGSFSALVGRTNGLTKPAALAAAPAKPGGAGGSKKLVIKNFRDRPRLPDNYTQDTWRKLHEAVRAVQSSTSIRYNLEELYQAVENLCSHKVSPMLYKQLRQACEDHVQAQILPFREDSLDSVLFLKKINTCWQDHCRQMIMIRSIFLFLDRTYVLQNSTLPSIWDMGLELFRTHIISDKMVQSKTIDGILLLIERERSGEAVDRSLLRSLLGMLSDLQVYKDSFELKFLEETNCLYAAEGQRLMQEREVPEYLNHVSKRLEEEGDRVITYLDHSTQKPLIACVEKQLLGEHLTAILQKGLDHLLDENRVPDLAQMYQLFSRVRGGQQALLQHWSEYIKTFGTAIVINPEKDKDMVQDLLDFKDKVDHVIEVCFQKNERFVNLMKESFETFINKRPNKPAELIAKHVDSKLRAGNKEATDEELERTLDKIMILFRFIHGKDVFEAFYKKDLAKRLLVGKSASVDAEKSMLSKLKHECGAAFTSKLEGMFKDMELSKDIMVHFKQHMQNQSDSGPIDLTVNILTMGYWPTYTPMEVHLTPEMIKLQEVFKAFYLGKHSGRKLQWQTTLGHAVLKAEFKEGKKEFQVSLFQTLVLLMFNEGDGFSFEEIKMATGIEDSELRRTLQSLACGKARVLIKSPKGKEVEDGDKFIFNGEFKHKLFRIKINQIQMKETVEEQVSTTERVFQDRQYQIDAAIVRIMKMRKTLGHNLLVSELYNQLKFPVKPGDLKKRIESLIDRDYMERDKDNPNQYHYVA
T2 sequence (P62877 whole entry partner): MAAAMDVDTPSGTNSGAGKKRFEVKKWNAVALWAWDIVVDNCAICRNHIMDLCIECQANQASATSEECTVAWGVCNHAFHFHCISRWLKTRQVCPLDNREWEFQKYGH
T1 sequence (Q86U44 2-580 limits assumed): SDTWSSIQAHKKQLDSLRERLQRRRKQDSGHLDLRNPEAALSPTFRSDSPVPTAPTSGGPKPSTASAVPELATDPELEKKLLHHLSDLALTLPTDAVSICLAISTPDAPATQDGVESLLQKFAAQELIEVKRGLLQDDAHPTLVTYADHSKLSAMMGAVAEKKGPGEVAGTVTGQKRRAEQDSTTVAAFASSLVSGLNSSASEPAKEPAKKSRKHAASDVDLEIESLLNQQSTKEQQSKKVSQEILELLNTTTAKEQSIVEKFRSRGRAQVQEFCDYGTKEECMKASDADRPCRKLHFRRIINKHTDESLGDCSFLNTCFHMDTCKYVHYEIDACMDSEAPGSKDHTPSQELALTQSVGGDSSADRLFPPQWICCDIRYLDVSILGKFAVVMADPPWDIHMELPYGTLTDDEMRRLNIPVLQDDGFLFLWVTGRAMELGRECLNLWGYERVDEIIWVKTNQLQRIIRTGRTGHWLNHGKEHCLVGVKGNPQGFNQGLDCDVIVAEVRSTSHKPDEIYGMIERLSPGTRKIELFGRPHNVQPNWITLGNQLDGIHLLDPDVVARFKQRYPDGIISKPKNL
T1 sequence (Q9HCE5 whole entry partner): as the sequence (Q9HCE5 whole entry partner) above

SMILES	ubiquitination of METTL14 (METTL14)	stabilization of METTL3 (CETSA) (METTL3 [1])	ubiquitination level of METTL3 (METTL3 [2])	m6A/A levels [3]
CC1(C)CCN(Cc2cc(F)c(N3CC(=O)NC4(CCN(c5cc(NCc6cccc(CNC(=O)CCCNc7cccc8c7C(=O)N(C7CCC(=O)NC7=O)C8=O)c6)ncn5)CC4)C3)cc2F)CC1 (stereo not shown) [Compound 14]	not as pronounced	stabilize METTL3 in a concentration-dependent manner	~40%	
CC1(C)CCN(Cc2cc(F)c(N3CC(=O)NC4(CCN(c5cc(NCC6CCN(C(=O)CCCNc7cccc8c7C(=O)N(C7CCC(=O)NC7=O)C8=O)CC6)ncn5)CC4)C3)cc2F)CC1 (stereo not shown) [Compound 22]				slight reduction
